Test results taken from patent US20240108003A1, “COMPOSITIONS AND METHODS FOR IMPROVING PLANT PERFORMANCE” (Advanced Crop Chemistry, priority 2022, published 2024).
In brackets after ≈: the same amount, converted by molar mass.

Assays:
[1] = tested on: Root Knot nematode (Meloidogyne incognita, M. javanica, M. arenaria, and M. hapla); assay: Soil Root Knot nematode populations, grapevines, Site 1; assay type: in vivo; conditions: Site 1, after 15 months
Method: (§1) Grapevines were treated with L-PGA alone or in combination with Nemacur® at two sites in California. […] Vines at both sites were 6 years old and replanted into sandy soil (CEC <7 meq/100 g soil) previously planted with vines. […] Site 2 was in Fresno County (var: Thompson seedless) and at this site several parasitic nematode species were in evidence (Table 8). Several treatments were undertaken as per Tables 6 & 7. Untreated vines received the standard grower cultural management programs. At both sites the plants were ungrafted. At Site 1, soil levels of nematodes were assessed prior to the onset of treatments and at various times throughout the trial (as given in Table 7). Plants were treated in the spring, summer, and fall and assessed 12, 13, 15 and, 24 months later at Site 1. Yield data were collected at both sites. Site 1 was treated for two seasons and yield was collected over two seasons. At Site 2, yields were collected and soil nematode levels were assessed 18 months after the onset of the treatments. Site 2 was only treated for one season and only one crop year was assessed.

[2] = tested on: Zymoseptoria tritici (Septotia tritici); assay: Growth of fungal plant pathogen on amended potato dextrose agar (colony surface area); assay type: cell-based; conditions: 0.5 g/L in buffered PDA pH 6.2, 10 days, darkness, 68° F.
Method: Zymoseptoria tritici (Septotia tritici) was grown in petri dishes on buffered (pH 6.2) potato dextrose agar (PDA), amended with penicillin (100 mg/L) and streptomycin (100 mg/L) as well as 2HOP (0.5 g/L) or […]). Five replicate plates/treatments were used and the cultures were grown for 10 days in darkness at 68° F. At the end of the 10-day period, the cultures were assessed in terms of the total surface area of growth of the colonies.

plant parasitic nematode = assay: Soil plant parasitic nematode populations, grapevines, Site 2; assay type: in vivo, nematodes; conditions: Site 2, L-PGA combined with Nemacur
Method: L-PGA was applied by drenching the roots with a solution (5 liters per plant) containing 1 g/L L-PGA. Nemacur® 400ec was applied as a labelled commercial treatment to specific rows at the trial locations by injection through the micro irrigation system (7.5 ml/vine). Each treatment comprised 20 vines in five replicate blocks (4 vines/replicate). […] Several treatments were undertaken as per Tables 6 & 7. Untreated vines received the standard grower cultural management programs. At both sites the plants were ungrafted. […] Yield data were collected at both sites.

Wheat (Winter White) = assay: Herbicide phytotoxicity on greenhouse wheat with and without 2HOP or L-PGA; assay type: in vivo; conditions: for phytotoxic impact of herbicides on wheat: combined with herbicides, foliar, assessed 10 days after application; for canopy biomass compared to the untreated: solo applications, 10 days post-treatment, visual
Method: Wheat (Winter White) seeds (5 g) were sown in a 1-gallon pot in a greenhouse under natural light with a diurnal temperature range of 75° F. to 90° F. Various herbicides were applied alone or in combinations with L-PGA or 2HOP. Materials were applied at the equivalent rate of 100 L water/Ha with 0.25% v/v polyalkyl glucoside added as a wetting agent. There were 4 replicates per treatment, with 1 pot/replicate. 10 days after sowing, plants received a light cover spray at an equivalent application volume of 25 gallons/acre. Plants were destructively assessed 10 days later by measuring the total above-ground biomass of each replicate.

oat seedlings [3] = assay: Soil application, carbon fixation capability in greenhouse grown oats; assay type: in vivo; conditions: soil drench 75 nanomoles daily; for increase of CO2 fixation compared to the untreated: plants 28 days old
Method: Sets (replicates) of oat seedlings were treated with 2HOP, L-PGA, or left untreated. Seeds were planted in standard potting soil in a greenhouse at a constant 75° F. under natural light, supplied a standard liquid nutrient solution, and treated daily with 75 nanomoles of either 2HOP or L-PGA beginning 14 days after seedling emergence. The treatments were applied as a soil drench. The CO2 fixation rates were measured when plants were 28 days old. The ribulose bisphosphate carboxylase (RUBISCO) activation state was measured when plants were 26 days old. The rates for 20 plants were averaged for each set of plants. […] L-PGA increased CO2 fixation compared to the untreated by 21%. However, when 2HOP is compared to L-PGA in terms of CO2 fixation, 2HOP fixed CO2 at over an 11% higher rate (see Table 14).

[4] = tested on: Hard Red Wheat seeds (variety Glenn); assay: Seed treatment, greenhouse-grown wheat leaf emergence; assay type: in vivo; conditions: greenhouse 65° F.
Method: The treatments were pre-diluted in an equivalent of 2 liters of water and applied to one ton of seed. The seeds were planted in a 30 cm×30 cm flat tray at 1 seed/cm^2 in a naturally illuminated greenhouse maintained at 65° F. See Table 19 in FIG. 14.

[5] = tested on: Wheat seeds (Skyfall variety); assay: Seed treatment, field grown wheat emergence and yield; assay type: in vivo
Excerpt: The treatments were pre-diluted in an equivalent of 2 liters of water and applied to one ton of seed. The seeds were planted in the fall at a rate of 200 kg/ha.

[6] = tested on: Peace Lily (Spathiphyllum); assay: Cold tolerance in a cold sensitive plant; assay type: in vivo; conditions: foliar 1 g/L; 4 days of 34-35° F. for 5-6 hours/day one week after treatment
Method: The popular ornamental plant, the “Peace Lily”, is in the genus Spathiphyllum and all species are indigenous to the tropics. […] Three groups of containerized plants (in 6-inch pots, growing in a standard potting media) were established, and foliarly treated with 1 g/L 2HOP or LPGA. A surfactant (polyalkyl glucoside) at 0.25% v/v was added to both treatments to improve leaf coverage. Plants were treated and one week later were exposed 4 days to a diurnal regime of low temperatures (34° F. to 35° F.) for at least 5-6 hours/day and a high temperature of 55° F. to 57° F. for the remainder of the day. Plants were under a natural light regime. […] See Table 10 in FIG. 7A and FIG. 7B.

lettuce plants = assay: Foliar treatment of lettuce plants, tissue aromatic amino acids; assay type: in vivo; conditions: 0.5 g/L
Excerpt: This is further supported by the data in Table 4 where foliar treatment of lettuce plants with […]) or 2HOP (0.5 g/L) increased the tissue levels of aromatic amino acids which are synthesized in the Shikimic acid pathway, a pathway that has a known role in modulation of plant innate tolerance to abiotic and biotic stresses such as disease.

[7] = tested on: free-living (beneficial nematodes); conditions: in vivo
Method: as §1

Grapevines = assay: Yield from grapevines grown in nematode infested soil; assay type: in vivo, grapevine; conditions: L-PGA root drench 1 g/L, Nemacur 7.5 ml/vine, vs untreated vines
Method: as §1

leaf lettuce seedlings = assay: Dry weight and carbon fixation capability in lettuce; assay type: in vivo; conditions: weekly foliar 100 micromolar
Method: Sets (replicates) of leaf lettuce seedlings were treated with 2HOP or left untreated. Seedlings were grown in a greenhouse (75° F.) with ambient light, supplied with a standard liquid nutrient solution. The treated plants received weekly foliar sprays containing 100 micromolar 2HOP. Each replicate contained 20 plants in a tray. All plants were assessed for each prescribed parameter. For all parameter values vs control p=<0.05. RUBISCO is ribulose bisphosphate carboxylase, the major carbon-fixing enzyme.

Pepper and tomato plants = assay: Leaf numbers, leaf area and dry weight of greenhouse-grown tomato and pepper; assay type: in vivo; conditions: foliar 1 g/L or 0.5 g+0.5 g/L, assessed at eight weeks
Method: Pepper and tomato plants were grown from seedlings for eight weeks in a greenhouse with ambient light at a constant 75° F. temperature. All plants received a standard fertigation treatment. Plants were destructively assessed at eight weeks. Each treatment had 20 single-plant replicates. Plants were treated with foliar applications of 2HOP (1 g/L water), […] water), or […] water). Each plant received approximately 50 ml of spray solution (sprayed to drip). All treatments included a wetting agent (polyalkyl glucoside) at 0.025% v/v addition. Plants received a light, cover spray at week 4. Plants were assessed in terms of leaf number per plant, leaf area/plant, and total dry weight/plant. In addition, at harvest, a composite leaf sample (10 leaves/plant, 200 leaves total) from each tomato treatment was collected, pooled with the other replicates, and assessed for elemental content which is presented in Table 18.

physchem = conditions: aqueous solutions
oat seedlings [8] = assay: Nitrate uptake rate of hydroponic oat seedlings; assay type: in vivo; conditions: first four hours of treatment
Method: Oat seedlings were either treated or untreated and their rates of nitrogen uptake were measured. Oat seedlings were hydroponically grown in a greenhouse under ambient light at 75° F. with a complete standard soluble nutrient solution. They were acclimated to constant light, then deprived of nitrogen for a period, and then their nitrogen (nitrate) was replenished with or without 2HOP in the nutrient solution. The plant root systems were submerged in the appropriate solutions and the plants were allowed to grow and take up nitrate. The depletion of nitrate from the solution was measured every four hours to determine the rate of nitrate uptake by the plants.

oat seedlings [9] = assay: Proline accumulation in oat seedlings; assay type: in vivo; conditions: weekly foliar 100 micromolar, 3 weeks; untreated undetectable
Method: Sets of oat seedlings were grown and either treated or not treated with 2-hydroxy-5-oxoproline. The plants were grown in a greenhouse at 75° F. with ambient light and provided a standard complete nutrient plant food. Weekly foliar treatments were applied with 100 micromolar 2HOP began at the two-true leaf stage and continued for 3 weeks. Leaves from 20 plants were sampled and the free pools of proline were measured.

oat seedlings [10] = assay: Leaf protein content of oat seedlings; assay type: in vivo; conditions: three weekly foliar treatments 100 micromolar
Method: Sets of oat seedlings were treated or untreated with 2HOP and the total foliar protein content was compared. Seedlings were greenhouse-grown at 75° F. under ambient light and provided a standard complete nutrient. The seedlings were given three weekly foliar treatments with 2HOP (100 micromolar) beginning at the two-true leaf stage.

[11] = tested on: Fusarium graminearum Schwabe Group 2; assay type: in vivo, Fusarium graminearum on wheat; conditions: foliar applications to infected wheat; ELISA on pooled grain

O=C1CC[C@@H](C(=O)O)N1 [L-PGA, L-pyroglutamate]
soil Root Knot nematode populations [1]: reduced | direct suppression of fungal growth (total surface area of colonies) [2]: no direct suppression of fungal growth | efficacy of Nemacur in soil plant parasitic nematode population suppression (plant parasitic nematode): increased the efficacy | phytotoxic impact of herbicides on wheat (Wheat (Winter White)): suppression of the phytotoxic impact | canopy biomass compared to the untreated (Wheat (Winter White)): visual increase in canopy biomass | increase of CO2 fixation compared to the untreated (oat seedlings [3]): 21% | increase of emergence versus the untreated [4]: 19% | leaf emergence compared to the untreated group [4]: increased | wheat yield compared to the untreated plots [5]: increased | cold damage compared with untreated plants [6]: less cold damage | tissue levels of aromatic amino acids (lettuce plants): increased | effect on free-living (beneficial nematodes) [7]: minimal effect | yield of grapevines (Grapevines): elevated yield

O=C1CC[C@@](O)(C(=O)O)N1 [2HOP, 2-hydroxy-5-oxoproline]
elevation of CO2 fixation (leaf lettuce seedlings): > 50% | elevation of RUBISCO activation (leaf lettuce seedlings): 129% | elevation of biomass (leaf lettuce seedlings; average across all biomass parameters): 34% | direct suppression of fungal growth (total surface area of colonies) [2]: no direct suppression of fungal growth | phytotoxic impact of herbicides on wheat (Wheat (Winter White)): suppression of the phytotoxic impact | canopy biomass compared to the untreated (Wheat (Winter White)): visual increase in canopy biomass | CO2 fixation rate, 2HOP compared to L-PGA (oat seedlings [3]; higher rate than L-PGA): > 11% | increase of RUBISCO activation (oat seedlings [3]; plants 26 days old): 48% | increase of CO2 fixation compared to the untreated (oat seedlings [3]): 34% | leaf emergence compared to the untreated group [4]: increased | wheat yield compared to the untreated plots [5]: increased | number of leaves, leaf area, and total dry weight (Pepper and tomato plants): greatest increases | solubility (physchem): 145 to 435 mg/mL (≈ 999 to 3000 mM) | cold damage compared with untreated plants [6]: less cold damage | tissue levels of aromatic amino acids (lettuce plants): increased | rate of nitrate uptake relative to untreated counterparts (oat seedlings [8]): approximately double | rate of nitrate uptake (oat seedlings [8]; untreated 5.8): 11.5 umol/gfwt/h | free proline pools in leaves (oat seedlings [9]): 2.6 micromol/g fwt | total foliar fresh weight, % of the control plants (oat seedlings [10]): 183% | total foliar protein, % of untreated control plants (oat seedlings [10]): 252% | total protein in the foliar parts, % of untreated control plants (oat seedlings [10]): 252% | foliar protein concentration (oat seedlings [10]; control 6.0): 8.8 mg/g fresh weight

calcium phosphite
DON grain levels [11]: largest reduction
